Results on 22 compounds are retold here after patent US11702404B2, “GLP-1R modulating compounds” (priority 2019, dated 2023).

In one data set the target is GLP-1R (Homo sapiens, UniProt P43220). In words: GLP-1R activation: cAMP increase in CHO cells stably expressing GLP-1R. It is filed as cell-based. Particulars: cAMP increase, CHO cells stably expressing GLP-1R, 10 point dose response, 30 minutes incubation; read-out: EC50.
Data set [1] in a line: Microsomal stability, human liver microsomes (predicted hepatic clearance). Particulars: predicted from in vitro microsomal stability data.

Chain of GLP-1R (P43220 24-463): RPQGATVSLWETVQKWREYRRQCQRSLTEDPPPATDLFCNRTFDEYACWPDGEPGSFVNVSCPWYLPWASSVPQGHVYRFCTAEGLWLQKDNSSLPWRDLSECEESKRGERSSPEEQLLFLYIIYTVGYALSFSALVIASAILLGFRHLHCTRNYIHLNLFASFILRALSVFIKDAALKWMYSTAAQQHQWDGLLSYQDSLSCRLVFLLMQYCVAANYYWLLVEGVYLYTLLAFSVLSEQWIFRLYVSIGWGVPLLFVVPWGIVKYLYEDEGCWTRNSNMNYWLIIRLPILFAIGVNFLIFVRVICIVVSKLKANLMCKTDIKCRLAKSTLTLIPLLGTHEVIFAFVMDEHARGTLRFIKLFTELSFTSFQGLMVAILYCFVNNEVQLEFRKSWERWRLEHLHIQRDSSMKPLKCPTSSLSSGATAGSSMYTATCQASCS

Regarding `N#Cc1ccc(COc2nccc(-c3cc(F)c(Cc4nc5c(F)cc(C(=O)O)cc5n4CC4(CF)CC4)cc3F)n2)c(F)c1` [Example 412, 2-(4-(2-((4-cyano-2-fluorobenzyl)oxy)pyrimidin-4-yl)-2,5-difluorobenzyl)-4-fluoro-1-((1-(fluoromethyl)cyclopropyl)methyl)-1H-benzo[d]imidazole-6-carboxylic acid], the EC50 (in general, the concentration giving half of the maximal effect) at GLP-1R amounted to 0.33 nM. In addition, the “Predicted Hepatic Clearance (Pred. Cl.)” value in data set [1] is less than 1.83 mL/min/kg.
For `O=C(O)c1ccc2nc(Cc3cc(F)c(-c4ccnc(OCc5ccc(Cl)cc5F)n4)cc3F)n(C[C@@H]3CCO3)c2c1` [Example 413, (S)-2-(4-(2-((4-chloro-2-fluorobenzyl)oxy)pyrimidin-4-yl)-2,5-difluorobenzyl)-1-(oxetan-2-ylmethyl)-1H-benzo[d]imidazole-6-carboxylic acid], in that order: 0.07 nM and less than 1.83 mL/min/kg.
For `COc1cc(Cl)ccc1COc1nccc(-c2cc(F)c(Cc3nc4ccc(C(=O)O)cc4n3CC3(CF)CC3)cc2F)n1` [Example 414, 2-(4-(2-((4-chloro-2-methoxybenzyl)oxy)pyrimidin-4-yl)-2,5-difluorobenzyl)-1-((1-(fluoromethyl)cyclopropyl)methyl)-1H-benzo[d]imidazole-6-carboxylic acid], in that order: 0.44 nM and 12 mL/min/kg.
For `N#Cc1ccc(COc2nccc(-c3cc(F)c(Cc4nc5ccc(C(=O)O)cc5n4C[C@@H]4CCO4)cc3F)n2)c(F)c1` [Example 415, (S)-2-(4-(2-((4-cyano-2-fluorobenzyl)oxy)pyrimidin-4-yl)-2,5-difluorobenzyl)-1-(oxetan-2-ylmethyl)-1H-benzo[d]imidazole-6-carboxylic acid], in that order: 0.15 nM and 4.33 mL/min/kg.
With `N#CCC1(Cn2c(Cc3cc(F)c(-c4cccc(OCc5ccc(Cl)cc5F)n4)cc3F)nc3ccc(C(=O)O)cc32)CC1` [Example 416, 2-(4-(6-((4-chloro-2-fluorobenzyl)oxy)pyridin-2-yl)-2,5-difluorobenzyl)-1-((1-(cyanomethyl)cyclopropyl)methyl)-1H-benzo[d]imidazole-6-carboxylic acid], the EC50 on GLP-1R amounted to 0.09 nM. Further, the “Predicted Hepatic Clearance (Pred. Cl.)” value in data set [1] is 4.17 mL/min/kg.
In the same order, the values of `COc1cc(C#N)ccc1COc1nccc(-c2cc(F)c(Cc3nc4ccc(C(=O)O)cc4n3CC3(CC#N)CC3)cc2F)n1` [Example 417, 2-(4-(2-((4-cyano-2-methoxybenzyl)oxy)pyrimidin-4-yl)-2,5-difluorobenzyl)-1-((1-(cyanomethyl)cyclopropyl)methyl)-1H-benzo[d]imidazole-6-carboxylic acid] are 0.1 nM and 12.7 mL/min/kg.
In the same order, the values of `COCCn1c(Cc2ccc(-c3cccc(OCc4ccc(C#N)cc4F)n3)cc2C#CC(C)(C)O)nc2ccc(C(=O)O)cc21` [Example 419, 2-(4-(6-((4-cyano-2-fluorobenzyl)oxy)pyridin-2-yl)-2-(3-hydroxy-3-methylbut-1-yn-1-yl)benzyl)-1-(2-methoxyethyl)-1H-benzo[d]imidazole-6-carboxylic acid] are 20.7 nM and 7.33 mL/min/kg.
For `N#Cc1ccc(COc2nccc(-c3cc(F)c(Cc4nc5c(F)cc(C(=O)O)cc5n4C[C@@H]4CCO4)cc3F)n2)c(F)c1` [Example 420, (S)-2-(4-(2-((4-cyano-2-fluorobenzyl)oxy)pyrimidin-4-yl)-2,5-difluorobenzyl)-4-fluoro-1-(oxetan-2-ylmethyl)-1H-benzo[d]imidazole-6-carboxylic acid], in that order: 0.05 nM and 3.5 mL/min/kg.
For the compound `N#Cc1ccc(COc2cccc(-c3ccn(Cc4nc5ccc(C(=O)O)cc5n4CC4(n5ccnn5)CC4)c(=O)c3)n2)c(F)c1` [Example 421, 1-((1-(1H-1,2,3-triazol-1-yl)cyclopropyl)methyl)-2-((6-((4-cyano-2-fluorobenzyl)oxy)-2′-oxo-[2,4′-bipyridin]-1′(2′H)-yl)methyl)-1H-benzo[d]imidazole-6-carboxylic acid], the EC50 on GLP-1R was 327 nM. In addition, the “Predicted Hepatic Clearance (Pred. Cl.)” value in data set [1] was less than 1.83 mL/min/kg.
On to `N#CCC1(Cn2c(Cn3ccc(-c4cccc(OCc5ccc(C#N)cc5F)n4)cc3=O)nc3ccc(C(=O)O)cc32)CC1` [Example 422, 2-((6-((4-cyano-2-fluorobenzyl)oxy)-2′-oxo-[2,4′-bipyridin]-1′(2′H)-yl)methyl)-1-((1-(cyanomethyl)cyclopropyl)methyl)-1H-benzo[d]imidazole-6-carboxylic acid], for which the EC50 at GLP-1R is 0.87 nM. In addition, in data set [1], the “Predicted Hepatic Clearance (Pred. Cl.)” value is 2.67 mL/min/kg.
For `N#Cc1ccc(COc2cccc(-c3ccn(Cc4nc5ccc(C(=O)O)cc5n4C[C@@H]4CCO4)c(=O)c3)n2)c(F)c1` [Example 423, (S)-2-((6-((4-cyano-2-fluorobenzyl)oxy)-2′-oxo-[2,4′-bipyridin]-1′(2′H)-yl)methyl)-1-(oxetan-2-ylmethyl)-1H-benzo[d]imidazole-6-carboxylic acid], in that order: 4.12 nM and less than 1.83 mL/min/kg.
In the same order, the values of `N#Cc1ccc(COc2cccc(-c3ccn(Cc4nc5ccc(C(=O)O)cc5n4CC4(CF)CC4)c(=O)c3)n2)c(F)c1` [Example 424, 2-((6-((4-cyano-2-fluorobenzyl)oxy)-2′-oxo-[2,4′-bipyridin]-1′(2′H)-yl)methyl)-1-((1-(fluoromethyl)cyclopropyl)methyl)-1H-benzo[d]imidazole-6-carboxylic acid] are 15.7 nM and 2.33 mL/min/kg.
In the case of `COCCn1c(Cc2ccc(-c3cccc(OCc4ccc(C#N)cc4F)n3)cc2CO)nc2ccc(C(=O)O)cc21` [Example 425, 2-(4-(6-((4-cyano-2-fluorobenzyl)oxy)pyiridn-2-yl)-2-(hydroxymethyl)benzyl)-1-(2-methoxyethyl)-1H-benzo[d]imidazole-6-carboxylic acid], the EC50 at GLP-1R was 4.29 nM. The “Predicted Hepatic Clearance (Pred. Cl.)” value in data set [1] is 6.7 mL/min/kg.
For `COCCn1c(Cc2cc(F)c(-c3cccc(OCc4ccc(C#N)cc4F)n3)cc2F)nc2ccc(C(=O)O)cc21` [Example 426, 2-(4-(6-((4-cyano-2-fluorobenzyl)oxy)pyridin-2-yl)-2,5-difluorobenzyl)-1-(2-methoxyethyl)-1H-benzo[d]imidazole-6-carboxylic acid], in that order: 2.34 nM and 4.6 mL/min/kg.
`COc1cc(C#N)ccc1COc1cccc(-c2cc(F)c(Cc3nc4ccc(C(=O)O)cc4n3CC3(CC#N)CC3)cc2F)n1` [Example 427, 2-(4-(6-((4-cyano-2-methoxybenzyl)oxy)pyridin-2-yl)-2,5-difluorobenzyl)-1-((1-(cyanomethyl)cyclopropyl)methyl)-1H-benzo[d]imidazole-6-carboxylic acid]: the EC50 on GLP-1R is 0.06 nM. Further, the “Predicted Hepatic Clearance (Pred. Cl.)” value in data set [1] was less than 1.83 mL/min/kg.
In the same order, the values of `N#CCC1(Cn2c(Cc3cc(F)c(-c4cccc(OCc5ccc(C#N)cc5F)n4)cc3F)nc3ccc(C(=O)O)cc32)CC1` [Example 428, 2-(4-(6-((4-cyano-2-fluorobenzyl)oxy)pyridin-2-yl)-2,5-difluorobenzyl)-1-((1-(cyanomethyl)cyclopropyl)methyl)-1H-benzo[d]imidazole-6-carboxylic acid] are 0.13 nM and 8.92 mL/min/kg.
For `N#Cc1ccc(COc2cccc(-c3cc(F)c(Cc4nc5ccc(C(=O)O)cc5n4CC4(CF)CC4)cc3F)n2)c(F)c1` [Example 429, 2-(4-(6-((4-cyano-2-fluorobenzyl)oxy)pyridin-2-yl)-2,5-difluorobenzyl)-1-((1-(fluoromethyl)cyclopropyl)methyl)-1H-benzo[d]imidazole-6-carboxylic acid], in that order: 0.61 nM and 3.83 mL/min/kg.
In the same order, the values of `COc1cc(C#N)ccc1COc1nccc(-c2cc(F)c(Cc3nc4ccc(C(=O)O)cc4n3CC3(CF)CC3)cc2F)n1` [Example 430, 2-(4-(2-((4-cyano-2-methoxybenzyl)oxy)pyrimidin-4-yl)-2,5-difluorobenzyl)-1-((1-(fluoromethyl)cyclopropyl)methyl)-1H-benzo[d]imidazole-6-carboxylic acid] are 0.67 nM and less than 1.83 mL/min/kg.
Take `N#Cc1ccc(COc2nccc(-c3cc(F)c(Cc4nc5ccc(C(=O)O)cc5n4CC4(CF)CC4)cc3F)n2)c(F)c1` [Example 431, 2-(4-(2-((4-cyano-2-fluorobenzyl)oxy)pyrimidin-4-yl)-2,5-difluorobenzyl)-1-((1-(fluoromethyl)cyclopropyl)methyl)-1H-benzo[d]imidazole-6-carboxylic acid]: the EC50 at GLP-1R is 0.73 nM. In addition, the “Predicted Hepatic Clearance (Pred. Cl.)” value in data set [1] is 3.83 mL/min/kg.
Consider `O=C(O)c1ccc2nc(Cc3cc(F)c(-c4cccc(OCc5ccc(Cl)cc5F)n4)cc3F)n(CC3(CF)CC3)c2c1` [Example 432, 2-(4-(6-((4-chloro-2-fluorobenzyl)oxy)pyridin-2-yl)-2,5-difluorobenzyl)-1-((1-(fluoromethyl)cyclopropyl)methyl)-1H-benzo[d]imidazole-6-carboxylic acid], for which the concentration for a half-maximal effect (EC50) at GLP-1R stood at 2.01 nM. Moreover, the “Predicted Hepatic Clearance (Pred. Cl.)” value in data set [1] was less than 1.83 mL/min/kg.
In the same order, the values of `O=C(O)c1ccc2nc(Cc3cc(F)c(-c4ccnc(OCc5ccc(Cl)cc5F)n4)cc3F)n(CC3(CF)CC3)c2c1` [Example 433, 2-(4-(2-((4-chloro-2-fluorobenzyl)oxy)pyrimidin-4-yl)-2,5-difluorobenzyl)-1-((1-(fluoromethyl)cyclopropyl)methyl)-1H-benzo[d]imidazole-6-carboxylic acid] are 0.64 nM and less than 1.83 mL/min/kg.
With `COCCn1c(Cn2cc(F)c(-c3cccc(OCc4ccc(C#N)cc4F)n3)cc2=O)nc2ccc(C(=O)O)cc21` [Example 434], the EC50 at GLP-1R is 2.86 nM. Also, the “Predicted Hepatic Clearance (Pred. Cl.)” value in data set [1] is 3.17 mL/min/kg.
